Data as given in PubChem BioAssay AID2060507 (Molecular Pharmacology Branch, DTP, NCI, 2025).

Test system: 519858-162-T-J1-PDC complex spheroid viability
Assay: Anticancer human tumor 519858-162-T-J1-PDC patient-derived colon adenocarcinoma cell line growth inhibition [GQUAD]
Conditions: for IC50: curve of first compound; for viability, T/C: stronger effect = lower value
Procedure, shortened: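 Tumor cells were grown as complex spheroids with HUVEC endothelial cells and mesenchymal stem cells as stroma. G-quadruplex stabilizers were combined with targeted agents over half-log dilutions from near the clinical Cmax, or from 10 microM.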

[1] = second compound 0.0316 µM, first compound 0.0316 µM
[2] = second compound 0.0316 µM, first compound 0.1 µM
[3] = second compound 0.0316 µM, first compound 0.316 µM
[4] = second compound 0.0316 µM, first compound 1 µM
[5] = second compound 0.0316 µM, first compound 3.16 µM
[6] = second compound 0.0316 µM, first compound 10 µM
[7] = second compound 0.1 µM, first compound 0.0316 µM
[8] = second compound 0.1 µM, first compound 0.1 µM
[9] = second compound 0.1 µM, first compound 0.316 µM
[10] = second compound 0.1 µM, first compound 1 µM
[11] = second compound 0.1 µM, first compound 3.16 µM
[12] = second compound 0.1 µM, first compound 10 µM
[13] = second compound 0.316 µM, first compound 0.0316 µM
[14] = second compound 0.316 µM, first compound 0.1 µM
[15] = second compound 0.316 µM, first compound 0.316 µM
[16] = second compound 0.316 µM, first compound 1 µM
[17] = second compound 0.316 µM, first compound 3.16 µM
[18] = second compound 0.316 µM, first compound 10 µM
[19] = second compound 1 µM, first compound 0.0316 µM
[20] = second compound 1 µM, first compound 0.1 µM
[21] = second compound 1 µM, first compound 0.316 µM
[22] = second compound 1 µM, first compound 1 µM
[23] = second compound 1 µM, first compound 3.16 µM
[24] = second compound 1 µM, first compound 10 µM
[25] = second compound 3.16 µM, first compound 0.0316 µM
[26] = second compound 3.16 µM, first compound 0.1 µM
[27] = second compound 3.16 µM, first compound 0.316 µM
[28] = second compound 3.16 µM, first compound 1 µM
[29] = second compound 3.16 µM, first compound 3.16 µM
[30] = second compound 3.16 µM, first compound 10 µM
[31] = second compound 10 µM, first compound 0.0316 µM
[32] = second compound 10 µM, first compound 0.1 µM
[33] = second compound 10 µM, first compound 0.316 µM
[34] = second compound 10 µM, first compound 1 µM
[35] = second compound 10 µM, first compound 3.16 µM
[36] = second compound 10 µM, first compound 10 µM
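Note: spheroids exposed to compounds for 7 days.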
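Throughout, for viability, T/C: 100% = DMSO vehicle control viability.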

In the case of `COc1cc(C2c3cc4c(cc3C(OC3OC5COC(C)OC5C(O)C3O)C3COC(=O)C23)OCO4)cc(OC)c1O` (stereo unspecified) + Cc1cnc(CNC(=O)c2c(=O)c3ccc(N4CCCN(C)CC4)nc3n3c2sc2ccccc23)cn1, the IC50 (second compound 0.0316 µM) is reported as over 10000 nM, the IC50 (second compound 0.1 µM) is reported as over 10000 nM and the IC50 (second compound 0.316 µM) is reported as 8090 nM. The IC50 (second compound 1 µM) was over 10000 nM, the IC50 (second compound 3.16 µM) was 5350 nM and the IC50 (second compound 10 µM) was under 31.6 nM. It also gave a viability, T/C [1] of 90%, a viability, T/C [2] of 94.6% and a viability, T/C [3] of 94.9%. The viability, T/C [4] was 105%, the viability, T/C [5] was 59.7% and the viability, T/C [6] was 83.3%. The viability, T/C [7] was 93.7%, the viability, T/C [8] was 115% and the viability, T/C [9] was 86.5%. It also gave a viability, T/C [10] of 79.9%, a viability, T/C [11] of 80.4% and a viability, T/C [12] of 64.4%. For the same compound, the viability, T/C [13] was 59%, the viability, T/C [14] was 69.9% and the viability, T/C [15] was 103%. The viability, T/C [16] was 63.8%, the viability, T/C [17] was 71.9% and the viability, T/C [18] was 45.1%. It also gave a viability, T/C [19] of 80.4%, a viability, T/C [20] of 51.6% and a viability, T/C [21] of 62%. The viability, T/C [22] was 58.7%, the viability, T/C [23] was 55.2% and the viability, T/C [24] was 61.8%. It also gave a viability, T/C [25] of 57%, a viability, T/C [26] of 60.3% and a viability, T/C [27] of 66.5%. For the same compound, the viability, T/C [28] was 55.7%, the viability, T/C [29] was 49.5% and the viability, T/C [30] was 47.7%. The viability, T/C [31] was 52.8%, the viability, T/C [32] was 40.8% and the viability, T/C [33] was 56.4%. For the same compound, the viability, T/C [34] was 41%, the viability, T/C [35] was 42.5% and the viability, T/C [36] was 74.1%.
`COc1cccc2c1C(=O)c1c(O)c3c(c(O)c1C2=O)CC(O)(C(=O)CO)CC3OC1CC(N)C(O)C(C)O1` (stereo unspecified) + Cc1cnc(CNC(=O)c2c(=O)c3ccc(N4CCCN(C)CC4)nc3n3c2sc2ccccc23)cn1 gave an IC50 (second compound 0.0316 µM) of over 10000 nM, an IC50 (second compound 0.1 µM) of over 10000 nM and an IC50 (second compound 0.316 µM) of over 10000 nM. The IC50 (second compound 1 µM) was over 10000 nM, the IC50 (second compound 3.16 µM) was 577 nM and the IC50 (second compound 10 µM) was under 31.6 nM. It also gave a viability, T/C [1] of 105%, a viability, T/C [2] of 85.3% and a viability, T/C [3] of 63.1%. It also gave a viability, T/C [4] of 81.8%, a viability, T/C [5] of 71.5% and a viability, T/C [6] of 59.9%. It also gave a viability, T/C [7] of 108%, a viability, T/C [8] of 80.2% and a viability, T/C [9] of 91%. For the same compound, the viability, T/C [10] was 79.1%, the viability, T/C [11] was 67% and the viability, T/C [12] was 58.8%. For the same compound, the viability, T/C [13] was 89.9%, the viability, T/C [14] was 51.9% and the viability, T/C [15] was 80.7%. The viability, T/C [16] was 44.4%, the viability, T/C [17] was 50.6% and the viability, T/C [18] was 74.3%. The viability, T/C [19] was 82.2%, the viability, T/C [20] was 44.3% and the viability, T/C [21] was 88.7%. For the same compound, the viability, T/C [22] was 53.4%, the viability, T/C [23] was 47.7% and the viability, T/C [24] was 57.6%. The viability, T/C [25] was 55.9%, the viability, T/C [26] was 61.1% and the viability, T/C [27] was 55%. For the same compound, the viability, T/C [28] was 33.6%, the viability, T/C [29] was 55.7% and the viability, T/C [30] was 47.1%. For the same compound, the viability, T/C [31] was 36%, the viability, T/C [32] was 52.4% and the viability, T/C [33] was 43.9%. The viability, T/C [34] was 39.5%, the viability, T/C [35] was 41.4% and the viability, T/C [36] was 31.8%.
For `O=C(NO)c1cnc(N2CCN(S(=O)(=O)c3ccc4ccccc4c3)CC2)nc1` + Cc1cnc(CNC(=O)c2c(=O)c3ccc(N4CCCN(C)CC4)nc3n3c2sc2ccccc23)cn1, the IC50 (second compound 0.0316 µM) was 244 nM, the IC50 (second compound 0.1 µM) was 339 nM and the IC50 (second compound 0.316 µM) was 345 nM. The IC50 (second compound 1 µM) was 173 nM, the IC50 (second compound 3.16 µM) was 107 nM and the IC50 (second compound 10 µM) was under 31.6 nM. It also gave a viability, T/C [1] of 119%, a viability, T/C [2] of 72.2% and a viability, T/C [3] of 50.9%. For the same compound, the viability, T/C [4] was 13.3%, the viability, T/C [5] was 0.34% and the viability, T/C [6] was 0.45%. For the same compound, the viability, T/C [7] was 81.2%, the viability, T/C [8] was 104% and the viability, T/C [9] was 53%. For the same compound, the viability, T/C [10] was 11.7%, the viability, T/C [11] was 1.16% and the viability, T/C [12] was 1.51%. For the same compound, the viability, T/C [13] was 92%, the viability, T/C [14] was 85.8% and the viability, T/C [15] was 53.8%. For the same compound, the viability, T/C [16] was 8.35%, the viability, T/C [17] was 5.71% and the viability, T/C [18] was 1.25%. The viability, T/C [19] was 88.7%, the viability, T/C [20] was 66.8% and the viability, T/C [21] was 31.8%. For the same compound, the viability, T/C [22] was 6.88%, the viability, T/C [23] was 1.42% and the viability, T/C [24] was 0.68%. The viability, T/C [25] was 68.2%, the viability, T/C [26] was 45.7% and the viability, T/C [27] was 37.1%. It also gave a viability, T/C [28] of 5.54%, a viability, T/C [29] of 3.32% and a viability, T/C [30] of 1.98%. The viability, T/C [31] was 42.8%, the viability, T/C [32] was 44.6% and the viability, T/C [33] was 26.1%. For the same compound, the viability, T/C [34] was 5.86%, the viability, T/C [35] was 3.74% and the viability, T/C [36] was 2.11%.
